Patent publication US12435068B2, “Anthelmintic compounds” (Elanco Animal Health GmBh, priority 2018, dated 2025)
pEC50: −log10 of the molar value. Converted amounts (≈) assume the structure as drawn.

Legend:
[1] = tested on: Dirofilaria immitis larvae; experiment: In Vitro Assay 3: Dirofilaria immitis (DIROIM L4) larval motility; format: cell-based; details: 72 h, read-out: EC50 ppm
[2] = tested on: Dirofilaria immitis microfilariae; experiment: In Vitro Assay 2: Dirofilaria immitis microfilariae (DIROIM L1) motility; format: cell-based; details: 72 h, read-out: EC50 ppm
C. elegans Slo-1a = C. elegans Slo-1a (Caenorhabditis elegans, UniProt Q95V25)
Sequence of C. elegans Slo-1a (Q95V25 whole entry): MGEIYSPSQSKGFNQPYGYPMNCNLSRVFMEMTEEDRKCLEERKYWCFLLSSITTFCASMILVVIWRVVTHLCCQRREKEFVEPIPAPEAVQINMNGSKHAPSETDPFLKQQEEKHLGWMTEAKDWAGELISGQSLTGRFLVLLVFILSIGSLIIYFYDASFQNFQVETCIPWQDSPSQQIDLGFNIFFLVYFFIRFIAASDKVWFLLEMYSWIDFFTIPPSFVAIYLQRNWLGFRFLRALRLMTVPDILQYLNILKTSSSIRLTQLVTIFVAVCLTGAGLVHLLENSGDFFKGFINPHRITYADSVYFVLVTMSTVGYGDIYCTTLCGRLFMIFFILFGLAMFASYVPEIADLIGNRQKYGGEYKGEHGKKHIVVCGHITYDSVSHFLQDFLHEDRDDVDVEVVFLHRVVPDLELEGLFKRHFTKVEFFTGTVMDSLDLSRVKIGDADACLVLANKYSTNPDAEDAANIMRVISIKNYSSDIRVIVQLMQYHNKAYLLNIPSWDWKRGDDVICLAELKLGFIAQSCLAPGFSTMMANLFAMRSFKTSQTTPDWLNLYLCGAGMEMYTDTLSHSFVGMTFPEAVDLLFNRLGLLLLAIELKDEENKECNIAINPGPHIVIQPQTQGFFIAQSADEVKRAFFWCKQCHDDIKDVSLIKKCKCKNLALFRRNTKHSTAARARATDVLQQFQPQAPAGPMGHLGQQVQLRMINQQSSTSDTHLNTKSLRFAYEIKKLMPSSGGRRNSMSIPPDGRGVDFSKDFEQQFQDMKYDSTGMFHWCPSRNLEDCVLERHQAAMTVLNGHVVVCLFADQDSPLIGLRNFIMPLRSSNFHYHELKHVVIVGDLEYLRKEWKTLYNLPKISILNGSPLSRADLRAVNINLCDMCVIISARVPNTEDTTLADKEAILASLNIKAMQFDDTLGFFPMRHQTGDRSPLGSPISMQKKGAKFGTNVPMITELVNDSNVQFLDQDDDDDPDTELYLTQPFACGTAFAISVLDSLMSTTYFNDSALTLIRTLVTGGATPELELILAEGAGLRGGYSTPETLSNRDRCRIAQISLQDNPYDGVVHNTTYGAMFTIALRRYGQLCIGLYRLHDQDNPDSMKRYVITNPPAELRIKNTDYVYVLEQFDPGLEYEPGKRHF
Procedure: Cells were cultured at 37° C. and 5% CO2 in MEMalpha with Gutamax I (Invitrogen, Nr.: 32571), supplemented with 10% (v/v) heat inactivated fetal bovine serum (Invitrogen, Nr.: 10500), G418 (1 mg/ml, Invitrogen, Nr.: 10131). Cells were detached using Accutase (Sigma, Nr.: A6964).
Membrane Potential Measurements
Laboratory compound testing was performed on 384-well microtiter plates (MTPs, Greiner, Nr.: 781092). 8000 cells/well were plated onto 384-well MTPs and cultured for 20 to 24 hours at 37° C. and 5% CO2. After removal of the cell culture medium, the cells were washed once with tyrode (150 mM NaCl, 0.3 mM KCl, 2 mM CaCl2, 1 mM MgCl2, 0.8 mM NaH2PO4, 5 mM Glucose, 28 mM Hepes, pH 7.4) and then loaded with the voltage sensitive dye of the Membrane Potential Assay Kit diluted in tyrode for 1 h at room temperature.
After starting the measurement of fluorescence using a FLIPR Tetra (Molecular Devices, Exc. 510-545 nm, Emm. 565-625 nm), test compounds were added followed by the addition of KCl tyrode (final assay concentration: 70 mM KCl, 2 mM CaCl2, 1 mM MgCl2, 0.8 mM NaH2PO4, 5 mM Glucose, 28 mM Hepes, pH 7.4, including the voltage sensitive dye). The measurement was completed after 7 minutes.

Row | SMILES | EC50 [1] [µg/mL] | EC50 [2] [µg/mL] | pEC50 (C. elegans Slo-1a)
1 | COc1c(C(=O)N[C@H]2CCOc3ccccc32)sc2c(-c3cccc(Cl)c3Cl)cccc12 [Example Compound S1-11, 7-(2,3-Dichlorophenyl)-N-[(4S)-3,4-dihydro-2H-chromen-4-yl]-3-methoxy-1-benzothiophene-2-carboxamide] | > 0.08 | 0.04 (≈ 0.0826 µM) | 7.50
2 | O=C(N[C@H]1CCOc2ccccc21)C1=Cc2cccc(-c3cccc(Cl)c3Cl)c2OC1 [Example Compound S8a-5, 8-(2,3-Dichlorophenyl)-N-[(4S)-3,4-dihydro-2H-chromen-4-yl]-2H-chromene-3-carboxamide] | 0.04 (≈ 0.0884 µM) | 0.09 (≈ 0.199 µM) | 8.30
3 | CC(C)c1c(C(=O)N[C@H]2CCOc3ccccc32)sc2c(-c3cccc(Cl)c3Cl)cccc12 [Example Compound S1-3, 7-(2,3-Dichlorophenyl)-N-[(4S)-3,4-dihydro-2H-chromen-4-yl]-3-isopropyl-1-benzothiophene-2-carboxamide] | 0.03 (≈ 0.0604 µM) | 0.01 (≈ 0.0201 µM) | 9.20
4 | CC(C)n1c(C(=O)N[C@H]2CCOc3ccccc32)cc2c(-c3cc(F)cc(F)c3F)cccc21 [Example Compound S2-6, N-[(4S)-3,4-Dihydro-2H-chromen-4-yl]-1-(propan-2-yl)-4-(2,3,5-trifluorophenyl)-1H-indole-2-carboxamide] | 0.08 (≈ 0.172 µM) | 0.0086 (≈ 0.0185 µM) | 7.80
